Read-outs that look alike come from different tables or passages of the source.
Tested on: CsgA gene expression (csgBAC promoter-GFP reporter) in E. coli UTI89
Experiment: In vitro live cell fluorescent reporter assay of CsgA transcription (Reporter Assay)
Type: cell-based
Details: Escherichia coli
Procedure, shortened: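 Chromosomal single-copy csgBAC promoter–GFP reporter in E. coli UTI89, started at OD600 0.003 in YESCA broth with compound (0.14–100 μM, 1% DMSO), 20 h at 27 °C. GFP (ex 485/em 525 nm) background-subtracted and normalized to vehicle; IC50 and X[50] from curve fits. OD600 tracked growth effects.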

[1] = read-out: Reporter Assay Abs IC50 (activity range), median Abs IC50 in the CsgA reporter assay, class symbol
[2] = read-out: Reporter Assay Abs IC50 (μM), median Abs IC50 in the CsgA reporter assay, N/A = maximum expression reduction is <50% of control
[3] = read-out: Reporter Assay Abs IC50, activity range, class symbol

Row | Structure (SMILES) | IC50 [1] | IC50 [2] | IC50 [3]
1 | O=C(O)C1CSc2c(-c3cccc(C(F)(F)F)c3)c(Cc3cccc4ccccc34)c(CO)c(=O)n21 (stereo not drawn) [Compound 057, 6-(hydroxymethyl)-7-(naphthalen-1-ylmethyl)-5-oxo-8-(3-(trifluoromethyl)phenyl)-2,3-dihydro-5H-thiazolo[3,2-a]pyridine-3-carboxylic acid] | 4.6 to 10 µM | 7.1 µM | 
2 | CN(C)C(=O)C1CN(C)S(=O)(=O)c2c(-c3cccc(C(F)(F)F)c3)c(Cc3cccc4ccccc34)cc(=O)n21 (stereo not drawn) [Compound 032, N,N-2-trimethyl-8-(naphthalen-1-ylmethyl)-6-oxo-9-(3-(trifluoromethyl)phenyl)-3,4-dihydro-2H,6H-pyrido[1,2-e][1,2,5]thiadiazine-4-carboxamide 1,1-dioxide] | 1.3 to 4.5 µM | 3.3 µM | 
3 | O=C(O)C1CN(Cc2ccc(-c3ccccc3)cc2)c2c(-c3cccc(C(F)(F)F)c3)c(Cc3cccc4ccccc34)c(Cl)c(=O)n21 (stereo not drawn) [Compound 202, 1-([1,1′-biphenyl]-4-ylmethyl)-6-chloro-7-(naphthalen-1-ylmethyl)-5-oxo-8-(3-(trifluoromethyl)phenyl)-1,2,3,5-tetrahydroimidazo[1,2-a]pyridine-3-carboxylic acid] |  | 0.8 µM | < 1.3 µM
4 | O=C(O)C1CN(Cc2ccccc2)c2c(-c3cccc(C(F)(F)F)c3)c(Cc3cccc4ccccc34)c(Br)c(=O)n21 (stereo not drawn) [Compound 003, 1-benzyl-6-bromo-7-(naphthalen-1-ylmethyl)-5-oxo-8-(3-(trifluoromethyl)phenyl)-1,2,3,5-tetrahydroimidazo[1,2-a]pyridine-3-carboxylic acid] |  | 0.8 µM | < 1.3 µM
5 | CCCNC(=O)c1c(Cc2cccc3ccccc23)c(-c2cccc(C(F)(F)F)c2)c2n(c1=O)C(C(=O)O)CN(C)S2(=O)=O (stereo not drawn) [Compound 154, 2-methyl-8-(naphthalen-1-ylmethyl)-6-oxo-7-(propylcarbamoyl)-9-(3-(trifluoromethyl)phenyl)-3,4-dihydro-2H,6H-pyrido[1,2-e][1,2,5]thiadiazine-4-carboxylic acid 1,1-dioxide] |  | 6.1 µM | 4.6 to 10 µM
6 | O=C(O)C1CN(CCC2CCCCC2)c2c(-c3cccc(C(F)(F)F)c3)c(Cc3cccc4ccccc34)c(Cl)c(=O)n21 (stereo not drawn) [Compound 207, 6-chloro-1-(2-cyclohexylethyl)-7-(naphthalen-1-ylmethyl)-5-oxo-8-(3-(trifluoromethyl)phenyl)-1,2,3,5-tetrahydroimidazo[1,2-a]pyridine-3-carboxylic acid] |  | 0.7 µM | < 1.3 µM
7 | CC(C)N1CC(C(=O)O)n2c1c(-c1cccc(C(F)(F)F)c1)c(Cc1cccc3ccccc13)c(Cl)c2=O (stereo not drawn) [Compound 179, 6-chloro-1-isopropyl-7-(naphthalen-1-ylmethyl)-5-oxo-8-(3-(trifluoromethyl)phenyl)-1,2,3,5-tetrahydroimidazo[1,2-a]pyridine-3-carboxylic acid] |  | 1.4 µM | 1.3 to 4.5 µM
8 | O=C(O)C1CN(CC2CCCC2)c2c(-c3cccc(C(F)(F)F)c3)c(Cc3cccc4ccccc34)c(Cl)c(=O)n21 (stereo not drawn) [Compound 167, 6-chloro-1-(cyclopentylmethyl)-7-(naphthalen-1-ylmethyl)-5-oxo-8-(3-(trifluoromethyl)phenyl)-1,2,3,5-tetrahydroimidazo[1,2-a]pyridine-3-carboxylic acid] |  | 0.6 µM | < 1.3 µM
9 | O=C(O)C1CN(CCCO)S(=O)(=O)c2c(-c3cccc(C(F)(F)F)c3)c(Cc3cccc4ccccc34)cc(=O)n21 (stereo not drawn) [Compound 056, 2-(3-hydroxypropyl)-8-(naphthalen-1-ylmethyl)-6-oxo-9-(3-(trifluoromethyl)phenyl)-3,4-dihydro-2H,6H-pyrido[1,2-e][1,2,5]thiadiazine-4-carboxylic acid 1,1-dioxide] | > 10 µM | 19.8 µM | 
10 | O=C(O)C1CN(Cc2ccncc2)c2c(-c3cccc(C(F)(F)F)c3)c(Cc3cccc4ccccc34)c(Cl)c(=O)n21 (stereo not drawn) [Compound 174, 6-chloro-7-(naphthalen-1-ylmethyl)-5-oxo-1-(pyridin-4-ylmethyl)-8-(3-(trifluoromethyl)phenyl)-1,2,3,5-tetrahydroimidazo[1,2-a]pyridine-3-carboxylic acid] |  | 4.4 µM | 1.3 to 4.5 µM
11 | O=C(O)c1c(CCc2ccccc2)sc2c(-c3cccc(C(F)(F)F)c3)c(Cc3cccc4ccccc34)cc(=O)n12 [Compound 062, 7-(naphthalen-1-ylmethyl)-5-oxo-2-phenethyl-8-(3-(trifluoromethyl)phenyl)-5H-thiazolo[3,2-a]pyridine-3-carboxylic acid] | < 1.3 µM | 0.9 µM | 
12 | CN1CC(C(=O)O)n2c(c(-c3cccc(C(F)(F)F)c3)c(Cc3cccc4ccccc34)c(NCc3ccccc3)c2=O)S1(=O)=O (stereo not drawn) [Compound 071] | 1.3 to 4.5 µM | 1.6 µM | 
13 | O=C(O)C1COc2c(-c3cccc(C(F)(F)F)c3)c(Cc3cccc4ccccc34)cc(=O)n21 (stereo not drawn) [Compound 064, 7-(naphthalen-1-ylmethyl)-5-oxo-8-(3-(trifluoromethyl)phenyl)-2,3-dihydro-5H-oxazolo[3,2-a]pyridine-3-carboxylic acid] | > 10 µM | 45.3 µM | 
14 | COc1ccc(CN2CC(C(=O)O)n3c2c(-c2cccc(C(F)(F)F)c2)c(Cc2cccc4ccccc24)c(Cl)c3=O)cc1 (stereo not drawn) [Compound 192, 6-chloro-1-(4-methoxybenzyl)-7-(naphthalen-1-ylmethyl)-5-oxo-8-(3-(trifluoromethyl)phenyl)-1,2,3,5-tetrahydroimidazo[1,2-a]pyridine-3-carboxylic acid] |  | 2.5 µM | 1.3 to 4.5 µM
15 | Nc1c(Cc2ccc(N)c3ccccc23)c(-c2cccc(C(F)(F)F)c2)c2n(c1=O)C(C(=O)O)CNS2(=O)=O (stereo not drawn) [Compound 041] | > 10 µM | 20.2 µM | 
16 | CC(C)(C)c1ccc(Cc2c(-c3cccc(C(F)(F)F)c3)c3n(c(=O)c2Cl)C(C(=O)O)CN3Cc2ccccc2)cc1 (stereo not drawn) [Compound 216, 1-benzyl-7-(4-(tert-butyl)benzyl)-6-chloro-5-oxo-8-(3-(trifluoromethyl)phenyl)-1,2,3,5-tetrahydroimidazo[1,2-a]pyridine-3-carboxylic acid] |  | 0.7 µM | < 1.3 µM
17 | O=C(O)C1CN(Cc2ccccc2CO)c2c(-c3cccc(C(F)(F)F)c3)c(Cc3cccc4ccccc34)c(Cl)c(=O)n21 (stereo not drawn) [Compound 181, 6-chloro-1-(2-(hydroxymethyl)benzyl)-7-(naphthalen-1-ylmethyl)-5-oxo-8-(3-(trifluoromethyl)phenyl)-1,2,3,5-tetrahydroimidazo[1,2-a]pyridine-3-carboxylic acid] |  | 2 µM | 1.3 to 4.5 µM
18 | O=C(O)C1n2c(c(-c3cccc(C(F)(F)F)c3)c(Cc3cccc4ccccc34)nc2=O)SC12CCCC2 (stereo not drawn) [Compound 053, 7′-(naphthalen-1-ylmethyl)-5′-oxo-8′-(3-(trifluoromethyl)phenyl)-3′H,5′H-spiro[cyclopentane-1,2′-thiazolo[3,2-c]pyrimidine]-3′-carboxylic acid] | > 10 µM | 16.3 µM | 
19 | CN(C)C(=O)c1c(Cc2cccc3ccccc23)c(-c2cccc(C(F)(F)F)c2)c2n(c1=O)C(C(=O)O)CN(C)S2(=O)=O (stereo not drawn) [Compound 173, 7-(dimethylcarbamoyl)-2-methyl-8-(naphthalen-1-ylmethyl)-6-oxo-9-(3-(trifluoromethyl)phenyl)-3,4-dihydro-2H,6H-pyrido[1,2-e] [1,2,5] thiadiazine-4-carboxylic acid 1,1-dioxide] |  | 6.7 µM | 4.6 to 10 µM
20 | O=C(O)C1CN(CCCCCCN2CC(C(=O)O)n3c2c(-c2cccc(C(F)(F)F)c2)c(Cc2cccc4ccccc24)c(Cl)c3=O)c2c(-c3cccc(C(F)(F)F)c3)c(Cc3cccc4ccccc34)c(Cl)c(=O)n21 (stereo not drawn) [Compound 193, 1,1′-(hexane-1,6-diyl)bis(6-chloro-7-(naphthalen-1-ylmethyl)-5-oxo-8-(3-(trifluoromethyl)phenyl)-1,2,3,5-tetrahydroimidazo[1,2-a]pyridine-3-carboxylic acid)] |  | 0.6 µM | < 1.3 µM
21 | O=C(O)[C@H]1CN(Cc2ccccc2)c2c(-c3cccc(C(F)(F)F)c3)c(Cc3cccc4ccccc34)c(Cl)c(=O)n21 (single isomer, unassigned) [Compound 004b] |  | 0.5 µM | < 1.3 µM
22 | CC1(C)Sc2c(-c3cccc(C(F)(F)F)c3)c(Cc3cccc4ccccc34)nc(=O)n2C1C(=O)O (stereo not drawn) [Compound 059, 2,2-dimethyl-7-(naphthalen-1-ylmethyl)-5-oxo-8-(3-(trifluoromethyl)phenyl)-2,3-dihydro-5H-thiazolo[3,2-c]pyrimidine-3-carboxylic acid] | > 10 µM | 21.1 µM | 
23 | CNC(=O)CCCCN1CC(C(=O)O)n2c(c(-c3cccc(C(F)(F)F)c3)c(Cc3cccc4ccccc34)cc2=O)S1(=O)=O (stereo not drawn) [Compound 038, 2-(5-(methylamino)-5-oxopentyl)-8-(naphthalen-1-ylmethyl)-6-oxo-9-(3-(trifluoromethyl)phenyl)-3,4-dihydro-2H,6H-pyrido[1,2-e][1,2,5]thiadiazine-4-carboxylic acid 1,1-dioxide] | > 10 µM | 24 µM | 
24 | O=C(O)C1CN(C[C@H](O)CO)S(=O)(=O)c2c(-c3cccc(C(F)(F)F)c3)c(Cc3cccc4ccccc34)cc(=O)n21 (stereo partly drawn) [Compound 065a, 2-((S)-2,3-dihydroxypropyl)-8-(naphthalen-1-ylmethyl)-6-oxo-9-(3-(trifluoromethyl)phenyl)-3,4-dihydro-2H,6H-pyrido[1,2-e][1,2,5]thiadiazine-4-carboxylic acid 1,1-dioxide] | > 10 µM | 24.5 µM | 

From patent US20230131899A1, “INHIBITORS OF MICROBIALLY INDUCED AMYLOID” (Axial Therapeutics, Inc., priority 2020, published 2023)
